Results taken from ChEMBL document CHEMBL1201862, “PubChem BioAssay data set” (2004).
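Step 1: Grow cells in 96-well plates. Step 2: Expose to compound for 48 hours at 5 concentrations. Step 3: Interpolate endpoints linearly; if unreached, use highest concentration. GI50 is the concentration that inhibits growth by half.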 The source made the active and inactive calls. Cut-off read from the data, not from the text of the source: active = GI50 up to about 1.1 µM and inactive = higher.

Legend:
Assay in all cases: NCI-60 cell line screen, 48 h
A549 = test system: A549
HCC 2998 = test system: HCC 2998
HCT-116 = test system: HCT-116
HCT-15 = test system: HCT-15
HOP-62 = test system: HOP-62
HOP-92 = test system: HOP-92
HT-29 = test system: HT-29
K562 = test system: K562
LOX IMVI = test system: LOX IMVI
MOLT-4 = test system: MOLT-4
NCI-H23 = test system: NCI-H23
OVCAR-4 = test system: OVCAR-4
OVCAR-8 = test system: OVCAR-8
SF-295 = test system: SF-295
SK-MEL-28 = test system: SK-MEL-28
SK-MEL-5 = test system: SK-MEL-5
SNB-19 = test system: SNB-19
SNB-75 = test system: SNB-75
UACC-62 = test system: UACC-62
UO-31 = test system: UO-31

| Compound | GI50 (A549) | GI50 (HCC 2998) | GI50 (HCT-116) | GI50 (HCT-15) [µM] | GI50 (HOP-62) | GI50 (HOP-92) | GI50 (HT-29) | GI50 (K562) | GI50 (LOX IMVI) | GI50 (MOLT-4) | GI50 (NCI-H23) | GI50 (OVCAR-4) | GI50 (OVCAR-8) | GI50 (SF-295) | GI50 (SK-MEL-28) | GI50 (SK-MEL-5) | GI50 (SNB-19) | GI50 (SNB-75) | GI50 (UACC-62) | GI50 (UO-31) |
| --- | --- | --- | --- | --- | --- | --- | --- | --- | --- | --- | --- | --- | --- | --- | --- | --- | --- | --- | --- | --- |
| COc1ccc(-c2nc3ccc([N+](=O)[O-])cc3c(=O)[nH]2)cc1 | 53.2 µM (inactive) | > 100 µM (inactive) | 27.4 µM (inactive) | > 100 | > 45.6 µM (inactive) | 22 µM (inactive) | > 100 µM (inactive) | > 100 µM (inactive) | 30.5 µM (inactive) | > 100 µM (inactive) | 29.3 µM (inactive) | 12.9 µM (inactive) | 21.1 µM (inactive) | 23.8 µM (inactive) | > 100 µM (inactive) | > 100 µM (inactive) | 20.4 µM (inactive) | 12.7 µM (inactive) | 37.7 µM (inactive) | 61.9 µM (inactive) |
| CCOC(=O)N1C=NC23C(c4ccccc4)C(c4ccccc4)C12C(=O)N(C)C(=O)N3C (stereo unspecified) | > 100 µM (inactive) | > 100 µM (inactive) | > 100 µM (inactive) | > 100 | > 100 µM (inactive) | > 100 µM (inactive) | > 100 µM (inactive) | > 100 µM (inactive) | > 100 µM (inactive) | > 100 µM (inactive) | > 100 µM (inactive) | > 100 µM (inactive) | > 100 µM (inactive) | > 100 µM (inactive) | > 100 µM (inactive) | > 100 µM (inactive) | > 100 µM (inactive) | > 100 µM (inactive) | > 100 µM (inactive) | 77.1 µM (inactive) |
| O=C1CCC23CC(C=CC=C12)n1c(=O)n(-c2ccccc2)c(=O)n13 (stereo unspecified) | > 63.8 µM (inactive) | > 100 µM (inactive) | > 71.9 µM (inactive) | > 78.7 | > 100 µM (inactive) | > 100 µM (inactive) | > 88.9 µM (inactive) | 39.8 µM (inactive) | > 72.1 µM (inactive) | 49.7 µM (inactive) | 99.1 µM (inactive) | > 100 µM (inactive) | > 100 µM (inactive) | > 100 µM (inactive) | > 69.2 µM (inactive) | > 87.3 µM (inactive) | > 100 µM (inactive) | > 100 µM (inactive) | > 100 µM (inactive) | > 64.4 µM (inactive) |
| CCCCNC(=O)N/C=C1\C(=O)Oc2ccccc2C1=O | 80.9 µM (inactive) | > 100 µM (inactive) | 43.9 µM (inactive) | 28.8 | 47.5 µM (inactive) | 24.9 µM (inactive) | > 100 µM (inactive) |  | 70.1 µM (inactive) | 35.3 µM (inactive) | 54.6 µM (inactive) | 57.3 µM (inactive) | 74.1 µM (inactive) |  | 30.1 µM (inactive) | > 100 µM (inactive) | 26.5 µM (inactive) |  | 33.4 µM (inactive) | 11.8 µM (inactive) |
| C[C@@H]1CC[C@H]2[C@H]1[C@H]1[C@@H](CC[C@]2(C)N=C=S)C1(C)C |  | 16.1 µM (inactive) | 17.9 µM (inactive) | 27.8 | 31.8 µM (inactive) | 30.7 µM (inactive) | 19.9 µM (inactive) | 16.2 µM (inactive) | 59.4 µM (inactive) | 13.8 µM (inactive) | 29.5 µM (inactive) | 44.9 µM (inactive) | 41.7 µM (inactive) | 21.4 µM (inactive) | 21.1 µM (inactive) | 17.5 µM (inactive) | > 10 µM (inactive) | 50.5 µM (inactive) | 21.8 µM (inactive) | 32.1 µM (inactive) |
| SC1=Nc2ccccc2-c2nc(-c3ccccc3)cc(-c3ccc(Br)cc3)c2C1 | 2.32 µM (inactive) | 3.17 µM (inactive) | 1.64 µM (inactive) | 3.54 | 1.31 µM (inactive) | 1.95 µM (inactive) | 2.07 µM (inactive) | 2.9 µM (inactive) | 2.99 µM (inactive) | 18.2 µM (inactive) | 2.65 µM (inactive) | 0.433 µM (active) | 1.1 µM (active) | 1.89 µM (inactive) | 11.2 µM (inactive) | 8.3 µM (inactive) | 1.21 µM (inactive) | 1.26 µM (inactive) | 2.26 µM (inactive) | 1.57 µM (inactive) |
| Cn1c(=O)c(-c2ccccc2)c(N=[N+]=[N-])c2ccccc21 | 67.8 µM (inactive) | 22.4 µM (inactive) | 69.5 µM (inactive) | 39.4 | 45 µM (inactive) | 17.9 µM (inactive) | 23.5 µM (inactive) | 34.8 µM (inactive) |  | 20.9 µM (inactive) | 38.7 µM (inactive) | 56.5 µM (inactive) | 49.3 µM (inactive) | 47.9 µM (inactive) | 66.4 µM (inactive) | 53.2 µM (inactive) | > 100 µM (inactive) | 4.46 µM (inactive) | 42.3 µM (inactive) | 46.8 µM (inactive) |
| Cc1cc2c(cc1C)[n+]([O-])c(C#N)c(Cl)[n+]2[O-] | 18.6 µM (inactive) | 11 µM (inactive) | 14.1 µM (inactive) | 4.35 | 19.6 µM (inactive) | 16.2 µM (inactive) | 4.44 µM (inactive) | 10.3 µM (inactive) | 12.1 µM (inactive) | 5.05 µM (inactive) | 11.7 µM (inactive) | 13.9 µM (inactive) | 15.3 µM (inactive) | 23.7 µM (inactive) | 14.1 µM (inactive) | 11.9 µM (inactive) | 34.3 µM (inactive) | 1.88 µM (inactive) | 11.7 µM (inactive) | 12 µM (inactive) |
| CC1CC[P+](c2ccccc2)(c2ccccc2)c2c1ccc1ccccc21 (stereo unspecified) | 4.83 µM (inactive) | 9.48 µM (inactive) | 1.96 µM (inactive) | 31.9 |  | 1.45 µM (inactive) | 2.28 µM (inactive) | 0.589 µM (active) | 2.33 µM (inactive) | 5.66 µM (inactive) | 1.57 µM (inactive) | 6.76 µM (inactive) | 1.84 µM (inactive) | 3.5 µM (inactive) |  | 0.83 µM (active) | 2.44 µM (inactive) | 2.37 µM (inactive) | 2.51 µM (inactive) | 15.9 µM (inactive) |
| N#C[C@H](OC1OC(COC2OC(CO)C(O)C(O)C2O)C(O)C(O)C1O)c1ccccc1 (stereo partly specified) | > 250 µM (inactive) | > 250 µM (inactive) | > 250 µM (inactive) | > 250 | > 250 µM (inactive) | 2.5 µM (inactive) | > 250 µM (inactive) | > 250 µM (inactive) | > 195 µM (inactive) | 158 µM (inactive) | > 250 µM (inactive) | > 250 µM (inactive) | > 250 µM (inactive) | 203 µM (inactive) | > 250 µM (inactive) | > 250 µM (inactive) | > 250 µM (inactive) | > 250 µM (inactive) | 247 µM (inactive) | > 250 µM (inactive) |
| N#Cc1ccc(C2Oc3ccc(Cl)cc3C=C2[N+](=O)[O-])cc1 (stereo unspecified) | 1.85 µM (inactive) | 0.979 µM (active) | 0.522 µM (active) | 1.07 | 1.98 µM (inactive) | 1.39 µM (inactive) | 2.4 µM (inactive) | 0.354 µM (active) | 1.04 µM (active) | 0.906 µM (active) | 1.48 µM (inactive) | 1.79 µM (inactive) | > 10 µM (inactive) | 2.87 µM (inactive) | 1.82 µM (inactive) | 1.38 µM (inactive) | 2.67 µM (inactive) | 1.47 µM (inactive) | 1.63 µM (inactive) | 1.63 µM (inactive) |
| CCCCCCCCCCCCCC(=O)OC1C(O)C(CO)OC(OC)C1NC(=O)N(CCCl)N=O (stereo unspecified) | 83.9 µM (inactive) | > 100 µM (inactive) |  | > 100 | 50.7 µM (inactive) |  | 56.6 µM (inactive) | > 100 µM (inactive) | 22.5 µM (inactive) | 17.3 µM (inactive) | 28.6 µM (inactive) | > 100 µM (inactive) | 43.6 µM (inactive) | 29 µM (inactive) | > 100 µM (inactive) | 45.2 µM (inactive) | 23.7 µM (inactive) | 38.6 µM (inactive) | 5.06 µM (inactive) | > 100 µM (inactive) |
| Cc1ccc(NC(=O)OCC(COc2ccc(Cl)cc2)OC(=O)Nc2ccc(C)cc2)cc1 (stereo unspecified) | 13.7 µM (inactive) | 39 µM (inactive) | 20.7 µM (inactive) | 29.7 | 26.6 µM (inactive) | 11.1 µM (inactive) | 15.2 µM (inactive) | 9.27 µM (inactive) | 21.2 µM (inactive) | 16.2 µM (inactive) | 25.9 µM (inactive) | 13.7 µM (inactive) | 81.3 µM (inactive) | 23.5 µM (inactive) | 35.1 µM (inactive) | 24.5 µM (inactive) | 19.6 µM (inactive) | 14.5 µM (inactive) | 19.1 µM (inactive) | 11.9 µM (inactive) |
